Earlier results as cited in EP0630652A2, “Contrast media” (NYCOMED SALUTAR, INC., priority 1991, dated 1993).

How the values were obtained:
[1] = Caussen et al. ROFO 148: 683
[2] = Unger et al. Invest. Radiol. 21: 802 (1986)

**Q.** Which side effect ([1]; GI tract use) does the source give for O=C([O-])CN(CCN(CC(=O)[O-])CC(=O)O)CCN(CC(=O)[O-])CC(=O)O.[Gd+3] [GdDTPA] here?
**A.** diarrhoea

**Q.** What about the “contrast improvement in the GI tract” value ([1]; MRI) of the same compound?
**A.** relatively poor

**Q.** Which LD₅₀ [2] does the source give for O=C([O-])CN(CCN(CC(=O)[O-])CC(=O)[O-])CCN(CC(=O)[O-])CC(=O)[O-].[Yb+3] [ytterbium DTPA] here?
**A.** 10 mmol/kg
